The target in one data set is T1, Cox-1 enzyme (Ovis aries, UniProt P05979).
T1 construct: purchased Cayman Chemical 60100
T1 sequence (P05979 25-600): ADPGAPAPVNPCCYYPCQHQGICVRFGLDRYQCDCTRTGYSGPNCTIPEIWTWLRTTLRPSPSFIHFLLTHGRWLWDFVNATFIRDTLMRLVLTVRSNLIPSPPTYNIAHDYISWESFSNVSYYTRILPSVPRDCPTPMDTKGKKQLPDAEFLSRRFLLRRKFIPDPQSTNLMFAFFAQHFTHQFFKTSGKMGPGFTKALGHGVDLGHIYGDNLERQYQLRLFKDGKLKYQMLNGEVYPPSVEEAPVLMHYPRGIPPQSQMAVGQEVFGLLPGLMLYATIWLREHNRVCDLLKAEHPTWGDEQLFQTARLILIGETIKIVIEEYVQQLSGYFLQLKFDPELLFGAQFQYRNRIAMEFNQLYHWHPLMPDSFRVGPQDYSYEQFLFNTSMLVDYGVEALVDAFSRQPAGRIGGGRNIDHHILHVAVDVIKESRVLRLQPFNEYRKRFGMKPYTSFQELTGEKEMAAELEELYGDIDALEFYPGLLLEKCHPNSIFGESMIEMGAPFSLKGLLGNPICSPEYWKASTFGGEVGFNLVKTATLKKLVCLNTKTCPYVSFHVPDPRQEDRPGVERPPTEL
Description: Cox-1/Cox-2 enzyme assay (Cox-1). Type of data set: biochemical. The following applies: for inhibition at 50 µM: read-out: % inhibition 5 × 10^−5 M COX-1; for IC50: enzyme assay. How it is done: (§1) I. Cox-1/Cox-2 Enzyme Assay:
(§2) The Cox-1/Cox-2 enzyme assay for the inventive azetidine compounds is carried out according to the following description:
(§3) Immediately after the addition of the substrate, the slope corresponding to the optical density increase at 480 nm is recorded for 1 minute. The reaction is monitored with a Hewlett-Packard 8452A spectrophotometer.

The next data set addresses T2, Cox-2 enzyme (Ovis aries, UniProt P79208).
T2 construct: purchased Cayman Chemical 60120
T2 sequence (P79208 17-603): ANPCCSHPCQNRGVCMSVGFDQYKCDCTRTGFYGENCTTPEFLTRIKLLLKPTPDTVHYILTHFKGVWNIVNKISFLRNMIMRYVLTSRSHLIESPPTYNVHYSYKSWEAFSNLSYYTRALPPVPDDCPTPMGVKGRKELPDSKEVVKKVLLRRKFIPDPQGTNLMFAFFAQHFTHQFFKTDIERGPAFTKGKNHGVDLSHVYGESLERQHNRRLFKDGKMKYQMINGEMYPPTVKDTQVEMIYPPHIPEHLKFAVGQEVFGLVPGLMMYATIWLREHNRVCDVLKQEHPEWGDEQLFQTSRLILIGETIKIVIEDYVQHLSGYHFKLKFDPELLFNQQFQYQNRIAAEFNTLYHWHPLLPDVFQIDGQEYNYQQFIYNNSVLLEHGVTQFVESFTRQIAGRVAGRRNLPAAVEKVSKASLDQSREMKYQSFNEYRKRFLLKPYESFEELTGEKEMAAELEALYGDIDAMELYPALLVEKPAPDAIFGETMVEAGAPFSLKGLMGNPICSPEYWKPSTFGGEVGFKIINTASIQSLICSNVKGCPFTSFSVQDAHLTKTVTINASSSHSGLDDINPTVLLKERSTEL
The data set can be described thus: Cox-1/Cox-2 enzyme assay (Cox-2). The following applies: for IC50: enzyme assay. It is filed as biochemical. How it is done: as §1, §2, §3

The target in the next data set is T3, Cox-1 (Homo sapiens, UniProt P23219).
T3 construct: from tissue; host or cells: fresh human whole blood
T3 sequence (P23219 24-599): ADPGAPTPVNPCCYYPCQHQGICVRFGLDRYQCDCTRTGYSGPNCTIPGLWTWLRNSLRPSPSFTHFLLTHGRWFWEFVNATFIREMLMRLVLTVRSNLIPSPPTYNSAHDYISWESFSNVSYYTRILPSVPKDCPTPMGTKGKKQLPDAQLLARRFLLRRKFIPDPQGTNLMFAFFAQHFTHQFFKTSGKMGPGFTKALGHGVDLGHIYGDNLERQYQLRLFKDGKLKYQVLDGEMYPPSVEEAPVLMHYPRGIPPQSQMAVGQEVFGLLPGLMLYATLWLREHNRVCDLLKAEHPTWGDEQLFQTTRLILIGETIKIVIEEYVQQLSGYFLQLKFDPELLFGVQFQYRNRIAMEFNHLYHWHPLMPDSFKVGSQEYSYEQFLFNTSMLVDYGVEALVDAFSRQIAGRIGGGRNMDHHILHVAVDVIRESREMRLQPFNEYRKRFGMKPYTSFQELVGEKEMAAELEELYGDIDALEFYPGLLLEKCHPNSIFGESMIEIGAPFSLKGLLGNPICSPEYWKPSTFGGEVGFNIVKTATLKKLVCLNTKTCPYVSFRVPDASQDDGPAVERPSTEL
Description: Cox-1 activity in human whole blood (TXB2). It is filed as cell-based. The note with it: read-out: hWB inhibition COX-1 IC50. How it is done:
(§4) II. Determination of Cox-1- and Cox-2-Activity in Human Whole Blood
(§5) The Cox-1- and Cox-2-activity in human whole blood is determined according to a modification of the method described in the publication of C. Brideau et al., “A human whole blood assay for clinical evaluation of biochemical efficacy of cyclooxygenase inhibitors”, Inflamm Res 1996; 45: 68-74. The respective part of the description is hereby incorporated by reference and forms part of the present disclosure.
For Cox-1 activity determination, fresh human blood is distributed in a volume of 0.5 ml to silicone Eppendorf tubes, into which 2 μl of the compound to be tested or dimethylsulfoxide (DMSO) at a final concentration of 0.4% (volume/volume). The tubes are inverted for homogenization and incubated for 1 hour at 37° C. under slight stirring. Afterwards they are centrifuged for 15 min at 10500 g and 100 μl of serum is collected. Proteins are precipitated by the addition of 400 μl of methanol to each tube, tubes were centrifuged for 10 minutes at 5000 g and 300 μl of supernatant is aspirated and then dried under nitrogen atmosphere.
Tromboxane B2 (TXB2) concentration is quantified using an assay kit (Caymann Chemical, Ann Arbor, Mich., U.S.A., Catalogue number 519031) after reconstitution into 300 μl assay buffer supplied in the assay kit.

The next data set concerns the target T4, Cox-2 (Homo sapiens, UniProt P35354).
T4 construct: 0.5 ml of fresh human blood; from tissue; host or cells: fresh human whole blood stimulated with E. coli 0111:B4 LPS
T4 sequence (P35354 18-604): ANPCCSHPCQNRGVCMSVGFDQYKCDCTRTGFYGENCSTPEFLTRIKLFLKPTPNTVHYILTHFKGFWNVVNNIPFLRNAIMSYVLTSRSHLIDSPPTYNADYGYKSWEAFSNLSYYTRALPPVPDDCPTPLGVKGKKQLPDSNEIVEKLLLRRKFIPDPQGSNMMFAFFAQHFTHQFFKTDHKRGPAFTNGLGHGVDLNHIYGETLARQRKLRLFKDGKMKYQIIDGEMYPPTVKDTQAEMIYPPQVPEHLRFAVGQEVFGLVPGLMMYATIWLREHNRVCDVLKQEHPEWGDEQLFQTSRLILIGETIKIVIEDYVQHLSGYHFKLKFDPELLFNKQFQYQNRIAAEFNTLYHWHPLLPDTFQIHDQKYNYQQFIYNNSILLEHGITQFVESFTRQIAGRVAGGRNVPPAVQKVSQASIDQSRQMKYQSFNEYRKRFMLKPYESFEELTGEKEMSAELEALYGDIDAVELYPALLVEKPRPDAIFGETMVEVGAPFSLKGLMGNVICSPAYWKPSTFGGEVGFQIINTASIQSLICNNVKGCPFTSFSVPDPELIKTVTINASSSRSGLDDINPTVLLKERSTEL
The data set can be described thus: Cox-2 activity in human whole blood (LPS, PGE2). It is filed as cell-based. The following applies: read-out: hWB inhibition COX-2 IC50. How it is done:
as §4, §5
For Cox-2 activity determination, tubes are prepared with 2 μl of the compound to be tested or DMSO, 12 μg/ml of aspirine, 9 μl of 1% (weight/volume) sodium heparine and 0.5 ml of fresh human blood. Samples are pre-incubated at 37° C. during 15 minutes and E. coli 0111:B4 LPS (from Sigma Chemical, St. Louis, Mo. U.S.A., catalogue number L-3012) are added for incubation during 24 h at 37° C. The samples are centrifuged for 100 μl of plasma collection. 400 μl of Ethyl acetate and 1% (volume/volume) methanol are added to each sample and the tubes are stirred and centrifuged for 10 minutes at 5000 g at 4° C. 300μl of supernatant are aspirated and evaporated under nitrogen atmosphere. Prostaglandin E2 concentration is quantified using an assay kit from Cayman Chemical, Ann-Arbor, Mich., U.S.A. (Catalogue number: 514010 ) after reconstitution into 300 μl assay buffer supplied in the assay kit.

The test system of another data set is rats. Description: Test for antiarthritic activity in rats (adjuvant). It is filed as in vivo. The note with it: Rattus norvegicus, daily oral route from day 15, read on day 25. On the procedure: V: Test for Antiarthritic Activity in Rats
The test for antiarthritic activity is carried out as described in the publication of Anderson et al., J. Clin. Invest. 97, 11, 2672-2679, (1996). The respective part of the description is hereby incorporated by reference and forms part of the present disclosure.
On day 0 of the experiment, the volumes of the contralateral paws to those injected, i.e. left hind paws, are measured by means of a pletismometer, the readings of which are expressed in ml.
Next, each rat is injected the adjuvant, consisting of 1 mg of Mycobacterium butyricum suspended in 0.1 ml of mineral oil, via subplantar route in the right hind paw.
Approximately every day, and for 15 days after the injection of adjuvant, the volumes of non-injected hind paws (contralateral) are measured again. […]
On day 15 of the experiment, daily administration of the compounds to be tested via oral route is started, and on each day, the volumes of non-injected hind paws is recorded.
On Day 25 of the experiment, the body weights and non-injected hind paws (contralateral) volumes are measured for the last time, and these values were used to determine the activities.

Structures are written as SMILES.

`CC(C)(C)c1cc(CC(=O)N2CC(O)C2)cc(C(C)(C)C)c1O` [Example 18, 2-(3,5-di-tert-butyl-4-hydroxy-phenyl)-1-(3-hydroxy-azetidin-1-yl)-ethanone]: the melting point (commonly the temperature, or range, at which the solid turns liquid) was in the range of 154 to 156 °C. The inhibition – broadly, the share of the control response that was lost under treatment – at 50 µM on Cox-1 enzyme is 4%. Further, the inhibition at 50 µM at Cox-2 enzyme (read-out: % inhibition 5 × 10^−5 M COX-2) was determined as 1%.
Compound `CC(C)(C)c1cc(C(=O)N2CC(Br)C2)cc(C(C)(C)C)c1O` [Example 7, (3-Bromo-azetidin-1-yl)-(3,5-di-tert-butyl-4-hydroxy-phenyl)-methanone] returned a melting point of 160 to 163 °C. In addition, the inhibition at 50 µM at Cox-1 enzyme turned out to be 35%. Also, the IC50 (in general, the concentration at which inhibition is half-maximal) on Cox-2 enzyme was 200 nM.
With `CC1(O)CN(C(=O)c2cc(C(C)(C)C)c(O)c(C(C)(C)C)c2)C1` [Example 3, (3,5-di-tert-butyl-4-hydroxy-phenyl)-(3-hydroxy-3-methyl-azetidin-1-yl)-methanone], the melting point lay within 148 to 153 °C. In addition, the IC50 on Cox-1 enzyme stood at 349000 nM. The same compound displayed an IC50 on Cox-2 enzyme of 3510 nM. Besides, the IC50 on Cox-1 came to 100 nM. At Cox-2, the IC50 was 100 nM. The ED50 (commonly the midpoint of the dose-response relation) in the data set on rats stood at 0.34 mg/kg.
In the case of `CC(C)(C)c1cc(C(=O)N2CC(O)C2)cc(C(C)(C)C)c1O` [Example 1, (3,5-di-tert-butyl-4-hydroxy-phenyl)-(3-hydroxy-azetidin-1-yl)-methanone], the melting point lay in the range of 185 to 189 °C. This compound registered an IC50 at Cox-1 enzyme of 37700 nM. Also, the concentration for half-maximal inhibition (IC50) on Cox-2 enzyme worked out at 1510 nM. The IC50 on Cox-1 amounted to 100 nM. The IC50 at Cox-2 came to 200 nM. Further, the ED50 with rats was 0.5 mg/kg.

The values are drawn from patent US20070093469A1, “Substituted azetidine compounds as cyclooxygenase-1-cyclooxygenase-2 inhibitors, and their preparation and use as medicaments” (LABORATORIOS DEL DR. ESTEVE S.A, priority 2004, published 2007).
